Data: ChEMBL document CHEMBL1201862, “PubChem BioAssay data set” (2004)
Active and inactive are the calls of the source.

Experiments:
[1] = target: T1, RNA-binding protein pos-1 (Caenorhabditis elegans, UniProt G5EF15); assay: disruptors of C. elegans POS-1 RNA interaction – biochemical, fluorescence polarization, dose response (AID 1964);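 further: purified POS-1 fused to maltose binding protein made in E. coli; potency of compounds blocking POS-1 binding to fluorescent RNA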
T1 sequence (G5EF15 whole entry): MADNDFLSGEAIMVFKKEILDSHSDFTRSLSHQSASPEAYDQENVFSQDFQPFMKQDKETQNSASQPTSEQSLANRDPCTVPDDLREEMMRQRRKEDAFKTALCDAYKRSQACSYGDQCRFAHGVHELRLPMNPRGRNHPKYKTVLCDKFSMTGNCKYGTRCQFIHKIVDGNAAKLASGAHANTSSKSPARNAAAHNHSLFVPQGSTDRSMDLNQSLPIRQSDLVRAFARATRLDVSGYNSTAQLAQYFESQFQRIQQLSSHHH

[2] = target: T2, Zinc finger protein mex-5 (Caenorhabditis elegans, UniProt Q9XUB2); assay: potency of MEX-5 RNA-binding blockers – biochemical, C. elegans, fluorescence polarization, dose response (AID 1960)
T2 sequence (Q9XUB2 whole entry): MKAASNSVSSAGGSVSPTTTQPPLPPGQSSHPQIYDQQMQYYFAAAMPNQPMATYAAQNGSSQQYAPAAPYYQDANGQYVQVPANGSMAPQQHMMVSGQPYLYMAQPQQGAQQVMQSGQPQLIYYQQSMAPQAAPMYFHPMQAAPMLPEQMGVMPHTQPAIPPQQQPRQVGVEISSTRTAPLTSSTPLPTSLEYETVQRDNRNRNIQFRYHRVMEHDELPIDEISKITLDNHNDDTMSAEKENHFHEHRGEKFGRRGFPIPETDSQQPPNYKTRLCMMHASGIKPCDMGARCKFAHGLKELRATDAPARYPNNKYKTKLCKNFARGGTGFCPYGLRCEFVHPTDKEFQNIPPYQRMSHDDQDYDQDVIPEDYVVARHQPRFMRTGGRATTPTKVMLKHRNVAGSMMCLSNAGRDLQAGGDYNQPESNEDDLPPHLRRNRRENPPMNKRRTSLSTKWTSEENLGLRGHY

[3] = target: T3, Streptokinase A (Streptococcus pyogenes serotype M1, UniProt P10520); assay: viability-normalized secreted streptokinase activity reduction – plasminogen activation absorbance, OD405, dose response (AID 1914); assay type: functional, Streptococcus pyogenes M1 GAS;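 further: secreted streptokinase activity via plasminogen activation per viability signal from cell pellet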
T3 sequence (P10520 whole entry): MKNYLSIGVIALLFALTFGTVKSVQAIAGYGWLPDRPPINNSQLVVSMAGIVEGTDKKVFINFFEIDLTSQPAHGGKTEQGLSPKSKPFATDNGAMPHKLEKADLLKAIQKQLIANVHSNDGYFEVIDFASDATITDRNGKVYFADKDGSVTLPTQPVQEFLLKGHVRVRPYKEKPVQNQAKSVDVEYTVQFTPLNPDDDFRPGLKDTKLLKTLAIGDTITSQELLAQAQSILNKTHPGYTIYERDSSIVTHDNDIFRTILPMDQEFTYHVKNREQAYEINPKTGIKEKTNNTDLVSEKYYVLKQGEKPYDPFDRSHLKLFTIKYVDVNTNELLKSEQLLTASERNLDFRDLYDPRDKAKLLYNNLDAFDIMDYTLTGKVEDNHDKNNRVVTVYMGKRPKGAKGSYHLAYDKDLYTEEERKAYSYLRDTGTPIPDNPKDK

[4] = system: Streptococcus; assay: GAS UMAA2166 growth inhibition – luminescence, BacTiterGlo, counter-screen for streptokinase expression inhibitor project, dose response (AID 1915); assay type: functional, organism-based;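 further: potency for reduction of bacterial viability or growth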
[5] = target: T4, Endoribonuclease toxin MazF (Escherichia coli K-12, UniProt P0AE70); assay: activation of MazEF endoribonuclease cleavage – biochemical, fluorescence, single-stranded RNA substrate, uHTS hits, dose response (AID 588481); assay type: functional
T4 sequence (P0AE70 whole entry): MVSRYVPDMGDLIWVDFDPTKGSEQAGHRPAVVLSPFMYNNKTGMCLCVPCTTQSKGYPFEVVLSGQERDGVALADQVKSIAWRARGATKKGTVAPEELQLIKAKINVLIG

[6] = target: T4, Endoribonuclease toxin MazF; assay: substrate-only fluorescence increase artefacts – biochemical, single-stranded RNase substrate, counter-screen for MazEF activator project, dose response (AID 588502); assay type: functional
[7] = target: Beta-galactosidase (Escherichia coli, UniProt Q8VNN2); assay: Dose response counterscreen for EBI2 assay utilizing the enzyme, b-galactosidase.; assay type: functional
Chain of Beta-galactosidase (Q8VNN2 whole entry): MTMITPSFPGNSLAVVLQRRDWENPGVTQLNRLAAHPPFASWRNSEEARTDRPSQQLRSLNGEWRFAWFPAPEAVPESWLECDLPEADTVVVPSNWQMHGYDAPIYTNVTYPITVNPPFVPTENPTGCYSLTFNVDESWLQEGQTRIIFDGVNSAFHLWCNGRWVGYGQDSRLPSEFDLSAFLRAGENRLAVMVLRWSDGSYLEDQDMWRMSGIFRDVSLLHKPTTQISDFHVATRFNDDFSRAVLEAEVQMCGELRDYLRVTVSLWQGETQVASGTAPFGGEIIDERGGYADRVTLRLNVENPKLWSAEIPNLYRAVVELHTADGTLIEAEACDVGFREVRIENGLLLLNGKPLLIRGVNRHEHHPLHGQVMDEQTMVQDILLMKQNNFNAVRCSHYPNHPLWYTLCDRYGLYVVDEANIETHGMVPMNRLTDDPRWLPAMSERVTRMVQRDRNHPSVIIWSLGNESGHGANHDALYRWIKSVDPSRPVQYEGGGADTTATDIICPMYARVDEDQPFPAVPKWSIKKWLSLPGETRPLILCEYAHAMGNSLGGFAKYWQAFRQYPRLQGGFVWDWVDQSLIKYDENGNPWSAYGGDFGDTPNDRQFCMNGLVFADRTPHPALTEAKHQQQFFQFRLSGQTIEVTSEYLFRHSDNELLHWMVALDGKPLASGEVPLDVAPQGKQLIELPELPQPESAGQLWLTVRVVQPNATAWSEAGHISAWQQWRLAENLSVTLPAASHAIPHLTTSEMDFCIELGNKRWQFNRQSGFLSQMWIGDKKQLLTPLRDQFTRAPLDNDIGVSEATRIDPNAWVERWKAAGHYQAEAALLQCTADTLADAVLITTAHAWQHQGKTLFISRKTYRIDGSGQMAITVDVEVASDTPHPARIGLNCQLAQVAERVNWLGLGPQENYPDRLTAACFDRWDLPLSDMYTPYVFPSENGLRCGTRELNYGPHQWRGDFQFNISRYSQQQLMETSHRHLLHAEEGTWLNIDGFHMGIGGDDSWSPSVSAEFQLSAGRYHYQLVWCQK

[8] = target: Fructose-bisphosphate aldolase (Mycobacterium tuberculosis, UniProt P9WQA3); assay: Fluorescence-based biochemical high throughput dose response assay for inhibitors of the fructose-bisphosphate aldolase (FBA) of M. tuberculosis.; assay type: functional
Chain of Fructose-bisphosphate aldolase (P9WQA3 whole entry): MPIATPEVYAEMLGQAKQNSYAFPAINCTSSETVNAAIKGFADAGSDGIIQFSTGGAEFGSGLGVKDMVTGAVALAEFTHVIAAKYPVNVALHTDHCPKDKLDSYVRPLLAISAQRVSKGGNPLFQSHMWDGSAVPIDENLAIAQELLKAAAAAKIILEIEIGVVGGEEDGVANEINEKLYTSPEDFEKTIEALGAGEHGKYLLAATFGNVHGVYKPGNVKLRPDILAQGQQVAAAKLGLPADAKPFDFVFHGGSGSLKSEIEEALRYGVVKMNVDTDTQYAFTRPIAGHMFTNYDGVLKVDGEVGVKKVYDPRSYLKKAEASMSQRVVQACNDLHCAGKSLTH

[9] = target: 26S proteasome non-ATPase regulatory subunit 14 (Homo sapiens, UniProt O00487); assay: inhibition of proteasome subunit RPN11 – biochemical, fluorescence polarization, uHTS hits, confirmation (AID 602368); assay type: functional
Chain of 26S proteasome non-ATPase regulatory subunit 14 (O00487 whole entry): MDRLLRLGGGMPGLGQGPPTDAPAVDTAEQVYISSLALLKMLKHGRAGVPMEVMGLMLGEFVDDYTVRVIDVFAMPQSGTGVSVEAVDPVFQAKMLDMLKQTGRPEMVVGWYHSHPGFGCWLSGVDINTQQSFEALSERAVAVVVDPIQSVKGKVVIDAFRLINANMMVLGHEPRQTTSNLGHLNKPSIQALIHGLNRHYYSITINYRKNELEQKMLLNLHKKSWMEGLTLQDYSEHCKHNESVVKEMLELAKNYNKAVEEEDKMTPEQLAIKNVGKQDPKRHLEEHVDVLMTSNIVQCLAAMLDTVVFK

[10] = target: 72 kDa type IV collagenase (Homo sapiens, UniProt P08253); assay: Dose Response validation of uHTS RPN11 inhibitor hits using a MMP-2 Fluorescence assay.; assay type: functional
Chain of 72 kDa type IV collagenase (P08253 whole entry): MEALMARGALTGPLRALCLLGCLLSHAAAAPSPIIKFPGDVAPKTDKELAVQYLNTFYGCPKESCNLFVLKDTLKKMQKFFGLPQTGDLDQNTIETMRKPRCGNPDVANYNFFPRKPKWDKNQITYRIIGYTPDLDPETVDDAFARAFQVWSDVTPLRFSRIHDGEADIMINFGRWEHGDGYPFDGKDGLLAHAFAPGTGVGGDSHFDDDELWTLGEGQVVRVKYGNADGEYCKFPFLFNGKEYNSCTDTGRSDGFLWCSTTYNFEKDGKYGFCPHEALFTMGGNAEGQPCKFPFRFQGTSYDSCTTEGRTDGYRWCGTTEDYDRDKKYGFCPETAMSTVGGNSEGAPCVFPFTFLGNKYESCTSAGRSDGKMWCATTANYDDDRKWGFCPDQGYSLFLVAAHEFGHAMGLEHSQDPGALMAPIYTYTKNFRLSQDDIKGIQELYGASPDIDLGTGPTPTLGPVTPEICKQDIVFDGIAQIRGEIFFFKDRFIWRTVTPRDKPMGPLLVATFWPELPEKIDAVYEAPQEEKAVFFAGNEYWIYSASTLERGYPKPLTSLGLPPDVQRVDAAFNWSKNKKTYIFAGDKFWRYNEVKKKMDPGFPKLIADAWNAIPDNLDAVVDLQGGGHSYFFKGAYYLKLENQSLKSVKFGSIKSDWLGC

[11] = target: Prothrombin (Bos taurus, UniProt P00735); assay: thrombin protease inhibitors – biochemical, fluorescence polarization, uHTS hits, dose response (AID 602369); assay type: functional
[12] = target: T5, Sentrin-specific protease 1 (Homo sapiens, UniProt Q9P0U3); assay: SENP1 catalytic domain blockers, concentration series – biochemical, kinetic FRET, dose response (AID 651697); assay type: functional; conditions: read-out: IC50_Mean
T5 sequence (Q9P0U3 whole entry): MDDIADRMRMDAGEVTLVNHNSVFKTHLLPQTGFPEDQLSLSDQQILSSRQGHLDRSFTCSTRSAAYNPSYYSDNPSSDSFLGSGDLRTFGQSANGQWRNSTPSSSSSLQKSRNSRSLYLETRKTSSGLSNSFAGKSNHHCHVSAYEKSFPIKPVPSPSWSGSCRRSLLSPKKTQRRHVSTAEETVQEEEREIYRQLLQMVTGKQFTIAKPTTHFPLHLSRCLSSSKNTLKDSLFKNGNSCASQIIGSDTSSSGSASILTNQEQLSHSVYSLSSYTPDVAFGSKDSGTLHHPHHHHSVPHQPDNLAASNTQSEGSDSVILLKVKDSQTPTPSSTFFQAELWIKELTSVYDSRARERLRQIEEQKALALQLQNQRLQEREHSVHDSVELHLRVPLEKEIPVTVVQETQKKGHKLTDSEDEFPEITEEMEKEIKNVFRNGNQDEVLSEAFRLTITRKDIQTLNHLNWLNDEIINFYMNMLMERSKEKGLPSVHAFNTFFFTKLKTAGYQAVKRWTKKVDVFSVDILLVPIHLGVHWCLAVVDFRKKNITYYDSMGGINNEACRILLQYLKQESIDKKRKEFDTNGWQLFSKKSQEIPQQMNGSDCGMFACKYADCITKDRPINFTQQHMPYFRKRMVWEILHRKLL

[13] = target: T5, Sentrin-specific protease 1; assay: Dose response confirmation of small molecule inhibitors of the catalytic domain of the SUMO protease, SENP1 in a FRET assay.; assay type: functional; conditions: read-out: IC50_Mean
[14] = cells; assay type: functional, cell-based
[15] = target: Nuclear receptor subfamily 0 group B member 1 (Homo sapiens, UniProt P51843); assay type: functional, cell-based;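 further: HEK293T cells transfected with SF-1 and DAX-1 plus StAR promoter luciferase reporter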
Chain of Nuclear receptor subfamily 0 group B member 1 (P51843 whole entry): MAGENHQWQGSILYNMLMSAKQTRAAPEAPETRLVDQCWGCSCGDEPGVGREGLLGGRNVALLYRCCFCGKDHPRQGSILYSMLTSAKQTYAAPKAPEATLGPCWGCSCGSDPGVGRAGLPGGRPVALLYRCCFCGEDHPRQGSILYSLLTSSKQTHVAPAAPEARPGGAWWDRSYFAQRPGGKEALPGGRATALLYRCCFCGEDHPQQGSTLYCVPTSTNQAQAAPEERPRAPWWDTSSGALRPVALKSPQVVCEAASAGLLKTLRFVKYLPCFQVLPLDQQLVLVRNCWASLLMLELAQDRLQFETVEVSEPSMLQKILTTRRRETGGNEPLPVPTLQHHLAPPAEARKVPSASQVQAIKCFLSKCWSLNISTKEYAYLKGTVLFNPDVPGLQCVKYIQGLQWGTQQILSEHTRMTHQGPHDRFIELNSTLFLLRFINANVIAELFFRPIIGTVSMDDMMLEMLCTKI

[16] = microbe, parasite or virus in culture; assay type: functional; conditions: Mycobacterium tuberculosis
[17] = system: HEK293; assay: viability loss in HEK293T cells – cell-based, ATP luminescence, cherry-pick samples, cytotoxicity control, dose response (AID 687005); assay type: functional; conditions: Homo sapiens;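 further: cells exposed to compound for 48 hours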
[18] = HEK293 Cytotoxicity Assay Measured in Cell-Based System Using Plate Reader - 7071-01_Inhibitor_Dose_CherryPick_Activity_Set2.; assay type: functional
[19] = system: Streptococcus sp. 'group A'; assay: Streptococcus pyogenes SK(-)GAS viability under kanamycin – luminescence, BacTiterGlo, confirmation, counter-screen for streptokinase expression inhibitor project, dose response (AID 1900); assay type: functional, organism-based
[20] = target: Photoreceptor-specific nuclear receptor (Homo sapiens, UniProt Q9Y5X4); assay type: functional, cell-based;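 further: CHO-S cells with Gal4-NCOR and VP16-NR2E3 two-hybrid luciferase reporter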
Chain of Photoreceptor-specific nuclear receptor (Q9Y5X4 whole entry, the tested form may be a part): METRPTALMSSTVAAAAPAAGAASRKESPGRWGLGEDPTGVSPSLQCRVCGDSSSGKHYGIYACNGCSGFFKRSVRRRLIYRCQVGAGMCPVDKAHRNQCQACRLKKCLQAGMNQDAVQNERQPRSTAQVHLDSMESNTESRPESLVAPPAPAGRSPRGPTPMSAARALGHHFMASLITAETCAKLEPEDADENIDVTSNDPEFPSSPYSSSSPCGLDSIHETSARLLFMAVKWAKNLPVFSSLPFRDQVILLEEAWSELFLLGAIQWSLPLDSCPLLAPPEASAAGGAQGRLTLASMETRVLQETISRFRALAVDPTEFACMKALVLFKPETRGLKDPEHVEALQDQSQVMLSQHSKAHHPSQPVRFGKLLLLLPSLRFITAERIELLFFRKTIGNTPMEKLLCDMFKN

For `COC(=O)/C=C1\C(=O)N(c2nc3ccccc3s2)C(=S)N1c1ccc(F)cc1`, the EC50 [1] was > 300 µM (not active), the EC50 [2] was > 300 µM (not active) and the EC50 [3] was > 150 µM (not active). The EC50 [4] was > 150 µM (not active), the EC50 [5] was > 99 µM (inactive) and the EC50 [6] was > 99 µM (inactive). For the same compound, the IC50 [7] was > 80 µM (inactive).
For `CCC(=O)Nc1ccc2c(c1)C(=O)N(C)C2=O`, the IC50 [8] was 4.38 µM (active).
With `COc1cccc(NC2=Nc3cccc4cccc2c34)c1` the IC50 [9] was 27.6 µM (active), the IC50 [10] was > 100 µM (inactive) and the IC50 [11] was 37.8 µM (active). The IC50 [12] was 27.7 µM (inactive) and the IC50 [13] was 41.3 µM (inactive).
In the case of `CCOC(=O)c1c(S(=O)(=O)Nc2ccc(CN3CCC(C)CC3)cc2)c(C)n(C)c1C`, the IC50 [14] is reported as > 67.5 µM (inactive) and the IC50 [15] is reported as > 67.5 µM (inactive).
In the case of `Cc1nc2c(cc1N)nc(C)n2Cc1ccccc1`, the IC50 [8] is reported as 0.653 µM (active).
In the case of `CCOC(=O)c1ccc(/N=c2\sc(C(=O)OC)cc(=O)n2CCCN2CCOCC2)cc1`, the CC50 [16] is reported as > 40 µM (active) and the IC50 [7] is reported as > 80 µM (inactive).
With `COc1ccccc1CNC(=O)C[C@@H]1CC[C@@H]2[C@H](COc3ccc(NC(C)=O)cc3C(=O)N2C)O1` the AC50 [17] was 37.8 µM (active) and the AC50 [18] was 37.8 µM (active).
For `CC(=O)c1c(O)cc(O)c(C(C)=O)c1O`, the EC50 [19] was 3.9 µM (active), the EC50 [4] was 3.98 µM (active) and the IC50 [20] was 3.24 µM (active).
